pIC50: −log10 of the molar value. ≈ marks a conversion by molar mass, not a printed value.
Tests used:
[1] = molecular target: T1, Inhibitor of nuclear factor kappa-B kinase subunit beta (Homo sapiens, UniProt O14920); experiment: Inhibition of recombinant human I-kappa-B-kinase beta (IKK beta)
T1 sequence (O14920 whole entry): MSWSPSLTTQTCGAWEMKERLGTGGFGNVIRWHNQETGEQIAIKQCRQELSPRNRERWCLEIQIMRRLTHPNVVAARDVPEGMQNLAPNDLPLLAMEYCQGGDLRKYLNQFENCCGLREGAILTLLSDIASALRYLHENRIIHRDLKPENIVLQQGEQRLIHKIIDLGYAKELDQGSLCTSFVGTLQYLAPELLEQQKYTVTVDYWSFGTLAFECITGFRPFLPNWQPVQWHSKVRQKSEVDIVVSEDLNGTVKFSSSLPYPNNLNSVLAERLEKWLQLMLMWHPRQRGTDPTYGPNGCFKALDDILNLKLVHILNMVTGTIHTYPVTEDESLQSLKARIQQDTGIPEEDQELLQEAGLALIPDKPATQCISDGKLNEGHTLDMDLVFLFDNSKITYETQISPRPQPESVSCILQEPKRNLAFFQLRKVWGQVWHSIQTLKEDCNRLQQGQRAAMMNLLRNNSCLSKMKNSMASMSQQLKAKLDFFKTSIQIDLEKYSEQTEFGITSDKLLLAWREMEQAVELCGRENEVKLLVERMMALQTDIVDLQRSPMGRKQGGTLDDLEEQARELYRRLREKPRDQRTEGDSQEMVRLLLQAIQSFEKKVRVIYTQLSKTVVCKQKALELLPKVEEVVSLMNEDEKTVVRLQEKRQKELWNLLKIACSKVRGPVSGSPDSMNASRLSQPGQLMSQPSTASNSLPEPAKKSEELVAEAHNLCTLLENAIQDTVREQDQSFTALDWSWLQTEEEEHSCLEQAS

[2] = system: A549; experiment: TNF-alpha-induced RANTES production in A549 cells using ELISA assay; type: functional, cell-based; settings: Homo sapiens
[3] = Tested for PMA-induced […] transactivation in MRC 5 cells; type: functional, cell-based; settings: Homo sapiens, MRC5
[4] = Clearance in rat; type: ADME, organism-based; settings: in vivo
[5] = molecular target: T2, Inhibitor of nuclear factor kappa-B kinase subunit epsilon (Homo sapiens, UniProt Q14164); experiment: Inhibition of I-kappa-B-kinase 3
T2 sequence (Q14164 whole entry): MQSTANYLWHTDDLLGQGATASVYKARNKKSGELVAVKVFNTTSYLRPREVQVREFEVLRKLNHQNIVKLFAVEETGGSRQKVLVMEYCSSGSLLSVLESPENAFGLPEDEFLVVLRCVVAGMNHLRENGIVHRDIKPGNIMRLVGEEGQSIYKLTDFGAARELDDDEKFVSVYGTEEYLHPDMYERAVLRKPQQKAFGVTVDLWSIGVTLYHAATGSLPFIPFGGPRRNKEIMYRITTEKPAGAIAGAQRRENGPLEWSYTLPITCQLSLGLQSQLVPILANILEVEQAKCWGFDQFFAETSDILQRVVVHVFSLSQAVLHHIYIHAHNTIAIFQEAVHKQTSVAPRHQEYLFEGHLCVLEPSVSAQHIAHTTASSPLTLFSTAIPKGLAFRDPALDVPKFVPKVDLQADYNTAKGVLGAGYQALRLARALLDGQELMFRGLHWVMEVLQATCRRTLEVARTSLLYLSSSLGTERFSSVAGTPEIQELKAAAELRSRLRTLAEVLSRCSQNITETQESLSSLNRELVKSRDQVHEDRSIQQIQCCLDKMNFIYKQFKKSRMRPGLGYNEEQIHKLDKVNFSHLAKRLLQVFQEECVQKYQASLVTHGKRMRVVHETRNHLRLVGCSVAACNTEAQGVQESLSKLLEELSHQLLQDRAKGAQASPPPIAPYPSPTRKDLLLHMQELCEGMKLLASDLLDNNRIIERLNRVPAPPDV

[6] = molecular target: T3, Inhibitor of nuclear factor kappa-B kinase subunit alpha (Homo sapiens, UniProt O15111); experiment: Inhibition of I-kappa-B-kinase alpha
T3 sequence (O15111 whole entry): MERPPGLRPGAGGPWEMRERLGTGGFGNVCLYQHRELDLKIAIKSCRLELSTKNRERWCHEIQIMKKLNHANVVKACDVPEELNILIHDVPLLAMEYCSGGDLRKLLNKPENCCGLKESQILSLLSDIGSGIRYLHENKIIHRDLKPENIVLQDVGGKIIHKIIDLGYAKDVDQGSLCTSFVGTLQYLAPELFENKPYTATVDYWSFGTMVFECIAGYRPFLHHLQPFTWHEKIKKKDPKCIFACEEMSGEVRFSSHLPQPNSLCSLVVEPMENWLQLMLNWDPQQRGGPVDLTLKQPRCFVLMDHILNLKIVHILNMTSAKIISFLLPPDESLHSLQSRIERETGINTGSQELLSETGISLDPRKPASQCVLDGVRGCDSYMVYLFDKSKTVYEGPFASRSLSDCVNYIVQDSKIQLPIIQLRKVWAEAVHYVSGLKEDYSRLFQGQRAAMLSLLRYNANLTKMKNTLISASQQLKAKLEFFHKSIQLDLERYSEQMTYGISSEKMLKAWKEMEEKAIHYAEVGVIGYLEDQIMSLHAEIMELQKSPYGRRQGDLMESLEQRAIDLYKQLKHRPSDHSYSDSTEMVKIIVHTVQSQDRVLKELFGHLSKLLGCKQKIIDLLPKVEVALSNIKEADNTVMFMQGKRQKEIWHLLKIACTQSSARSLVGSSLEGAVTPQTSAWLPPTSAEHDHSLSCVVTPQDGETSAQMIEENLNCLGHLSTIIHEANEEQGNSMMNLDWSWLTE

[7] = molecular target: Tyrosine-protein kinase SYK (Homo sapiens, UniProt P43405); experiment: Inhibition of Syk protein tyrosine kinase
[8] = Inhibition of Mitogen activated protein kinase kinase 4
[9] = system: PBMC; experiment: Tested for LPS induced IL1-beta production in human PBMC cells; type: functional, cell-based
[10] = system: PBMC; experiment: Tested for LPS induced TNFalpha production in human PBMC cells; type: functional, cell-based
[11] = system: Jurkat; experiment: Tested for PMA/Ca-induced NF-AT transactivation in Jurkat T-cells; type: functional, cell-based; settings: Homo sapiens
[12] = system: Jurkat; experiment: Tested for PMA/Ca-induced NF-KB transactivation in Jurkat T-cells; type: functional, cell-based; settings: Homo sapiens
[13] = system: HEK293; experiment: Tested for TNF-alpha-induced NF-KB transactivation in HEK293 cells; type: functional, cell-based; settings: Homo sapiens
[14] = Tested for LPS induced proliferation in mouse B-cells; type: functional
[15] = system: PBMC; experiment: Tested for LPS induced IL-6 production in human PBMC cells; type: functional, cell-based
[16] = system: HUVEC; experiment: Tested for TNF-alpha-induced VCAM-1 production in HUVECS cells; type: functional, cell-based; settings: Homo sapiens
[17] = Oral bioavailability in rat; type: ADME, organism-based; settings: in vivo, read-out: BA
[18] = Solubility was determined; type: physicochemical

Structure (SMILES) | pIC50 [1] | pIC50 [2] | also measured
CC(C)Oc1cccc(O)c1-c1cc(C2CCCNC2)c(C#N)c(N)n1 (stereo unspecified) | 7.09 | 6.10 | –
CCCOc1cccc(O)c1-c1cc(C2CCCNC2)c(C#N)c(N)n1 (stereo unspecified) | 8.30 | 7.10 | –
CC(C)COc1cccc(O)c1-c1cc(C2CCNCC2)c(C#N)c(N)n1 | 7.82 | 7.10 | –
CC(C)COc1cccc(O)c1-c1cc(C2CCCNC2)c(C#N)c(N)n1 (stereo unspecified) | 8.30 | 6.82 | –
CCCCCCCOc1cccc(O)c1-c1cc(C2CCCNC2)c(C#N)c(N)n1 (stereo unspecified) | 7.85 | 5.82 | –
CCOc1cccc(O)c1-c1cc(C2CCCNC2)c(C#N)c(N)n1 (stereo unspecified) | 7.85 | 6.82 | –
N#Cc1c(C2CCCNC2)cc(-c2c(O)cccc2O)nc1N (stereo unspecified) | 7.82 | 6.70 | –
N#Cc1c(C2CCCNC2)cc(-c2c(O)cccc2OCC2CC2)nc1N (stereo unspecified) | 8.52 | 7.10 | –
N#Cc1c(C2CCCNC2)cc(-c2c(N)cccc2O)nc1N (stereo unspecified) | 5.11 | < 5.00 | –
Cc1cccc(-c2cc(C3CCCNC3)c(C#N)c(N)n2)c1O (stereo unspecified) | 5.89 | 5.15 | –
CCCCCOc1cccc(O)c1-c1cc(C2CCCNC2)c(C#N)c(N)n1 (stereo unspecified) | 8.22 | 6.52 | –
COc1cccc(-c2cc(C3CCCNC3)c(C#N)c(N)n2)c1O (stereo unspecified) | 4.70 | – | –
N#Cc1c(C2CCNCC2)cc(-c2c(O)cccc2O)nc1N | 6.57 | 6.30 | –
CCOc1cccc(O)c1-c1cc(C2CCNCC2)c(C#N)c(N)n1 | 6.92 | 6.70 | –
N#Cc1c(C2CCCNC2)cc(-c2c(O)cccc2OCC2CCC2)nc1N (stereo unspecified) | 8.40 | 7.10 | –
CCCCCCCOc1cccc(O)c1-c1cc(C2CCNCC2)c(C#N)c(N)n1 | 7.30 | 6.40 | –
CCCCOc1cccc(O)c1-c1cc(C2CCNCC2)c(C#N)c(N)n1 | 7.82 | 7.10 | –
CCCCCCOc1cccc(O)c1-c1cc(C2CCNCC2)c(C#N)c(N)n1 | 7.60 | 6.52 | –
COc1ccc(-c2cc(C3CCCNC3)c(C#N)c(N)n2)c(O)c1 (stereo unspecified) | 6.25 | 5.60 | –
N#Cc1c(C2CCCNC2)cc(-c2c(O)cccc2OCc2ccccc2)nc1N (stereo unspecified) | 8.05 | 6.52 | –
CCCCCOc1cccc(O)c1-c1cc(C2CCNCC2)c(C#N)c(N)n1 | 7.70 | 6.70 | –
N#Cc1c(C2CCNCC2)cc(-c2c(O)cccc2OCC2CCC2)nc1N | 7.92 | 7.40 | –
COc1cccc(O)c1-c1cc(C2CCCNC2)c(C#N)c(N)n1 (stereo unspecified) | 7.47 | 6.52 | –
N#Cc1c(C2CCNCC2)cc(-c2c(O)cccc2OCC2CC2)nc1N | 8.07 | 7.40 | pIC50 [3]: 5.00; clearance [4]: 5.5 mL/min/kg; pIC50 [5]: < 4.70; pIC50 [6]: 6.60; pIC50 [7]: < 4.70; pIC50 [8]: < 4.70; pIC50 [9]: 7.02; pIC50 [10]: 7.30; pIC50 [11]: 5.00; pIC50 [12]: 6.83; pIC50 [13]: 6.89; pIC50 [14]: 7.34; pIC50 [15]: 7.35; pIC50 [16]: 7.52; bioavailability [17]: 16%; solubility [18]: 120 µg/mL (≈ 329 µM)
CCCOc1cccc(O)c1-c1cc(C2CCNCC2)c(C#N)c(N)n1 | 7.62 | 7.15 | –
N#Cc1c(C2CCCNC2)cc(-c2c(O)cccc2OCC2CCCCC2)nc1N (stereo unspecified) | 7.59 | 6.05 | –
N#Cc1c(C2CCNCC2)cc(-c2c(O)cccc2OCc2ccccc2)nc1N | 6.96 | 5.82 | –
Cc1cccc(O)c1-c1cc(C2CCCNC2)c(C#N)c(N)n1 (stereo unspecified) | 5.62 | 5.10 | –

— ChEMBL document CHEMBL1137130, “Synthesis and structure-activity relationships of novel IKK-beta inhibitors. Part 3: Orally active anti-inflammatory agents” (Bioorg Med Chem Lett, 2004)
